Data as given in the NIST ThermoML archive (doi:10.1016/j.jct.2016.02.010).
Numbers after ± are expanded uncertainties.

Columns and labels:
[1] = Crystal; for vapor or sublimation pressure: Calculated from knudsen effusion weight loss
[2] = Molar enthalpy of transition or fusion; details: Crystal; DSC
[3] = molar heat capacity at constant pressure; details: 101.33 kPa, Crystal, Small sample (50 mg) DSC

In the case of `OC(c1ccccc1)(c1ccccc1)c1ccccc1` [triphenylmethanol], the “vapor or sublimation pressure” value ([1]; 342.25 K) is reported as 3.35e-06 ± 1.9e-07 kPa, the “vapor or sublimation pressure” value ([1]; 344.44 K) is reported as 4.39e-06 ± 2.5e-07 kPa and the “vapor or sublimation pressure” value ([1]; 347.56 K) is reported as 6.8e-06 ± 4e-07 kPa. The “vapor or sublimation pressure” value ([1]; 351.64 K) was 1.11e-05 ± 6e-07 kPa, the “vapor or sublimation pressure” value ([1]; 353.37 K) was 1.42e-05 ± 8e-07 kPa and the “vapor or sublimation pressure” value ([1]; 356.81 K) was 1.93e-05 ± 1e-06 kPa. The “vapor or sublimation pressure” value ([1]; 358.08 K) was 2.17e-05 ± 1.2e-06 kPa, the Normal melting temperature ([1]; DTA) was 162.1 ± 0.5 °C and the “Molar enthalpy of transition or fusion” value [2] was 6.52 ± 0.167 kcal/mol. For the same molecule, the “molar heat capacity at constant pressure” value ([3]; 259.15 K) was 283 ± 9.4 J/K/mol, the “molar heat capacity at constant pressure” value ([3]; 260.15 K) was 283.6 ± 9.4 J/K/mol and the “molar heat capacity at constant pressure” value ([3]; 261.15 K) was 284.9 ± 9.5 J/K/mol. For the same molecule, the “molar heat capacity at constant pressure” value ([3]; 262.15 K) was 285.6 ± 9.5 J/K/mol, the “molar heat capacity at constant pressure” value ([3]; 263.15 K) was 286.4 ± 9.5 J/K/mol and the “molar heat capacity at constant pressure” value ([3]; 264.15 K) was 288.3 ± 9.6 J/K/mol. The “molar heat capacity at constant pressure” value ([3]; 265.15 K) was 289.5 ± 9.6 J/K/mol, the “molar heat capacity at constant pressure” value ([3]; 266.15 K) was 290.4 ± 9.6 J/K/mol and the “molar heat capacity at constant pressure” value ([3]; 267.15 K) was 291.2 ± 9.7 J/K/mol. For the same molecule, the “molar heat capacity at constant pressure” value ([3]; 268.15 K) was 290.8 ± 9.6 J/K/mol, the “molar heat capacity at constant pressure” value ([3]; 269.15 K) was 292.3 ± 9.7 J/K/mol and the “molar heat capacity at constant pressure” value ([3]; 270.15 K) was 293.4 ± 9.7 J/K/mol. The “molar heat capacity at constant pressure” value ([3]; 271.15 K) was 294.3 ± 9.8 J/K/mol, the “molar heat capacity at constant pressure” value ([3]; 272.15 K) was 295.3 ± 9.8 J/K/mol and the “molar heat capacity at constant pressure” value ([3]; 273.15 K) was 296.5 ± 9.8 J/K/mol. For the same molecule, the “molar heat capacity at constant pressure” value ([3]; 274.15 K) was 297.4 ± 9.9 J/K/mol, the “molar heat capacity at constant pressure” value ([3]; 275.15 K) was 297.3 ± 9.9 J/K/mol and the “molar heat capacity at constant pressure” value ([3]; 276.15 K) was 298.6 ± 9.9 J/K/mol. The “molar heat capacity at constant pressure” value ([3]; 277.15 K) was 299.8 ± 9.9 J/K/mol, the “molar heat capacity at constant pressure” value ([3]; 278.15 K) was 301.2 ± 10 J/K/mol and the “molar heat capacity at constant pressure” value ([3]; 279.15 K) was 302.1 ± 10 J/K/mol. For the same molecule, the “molar heat capacity at constant pressure” value ([3]; 280.15 K) was 302.8 ± 10 J/K/mol, the “molar heat capacity at constant pressure” value ([3]; 281.15 K) was 303.4 ± 10 J/K/mol and the “molar heat capacity at constant pressure” value ([3]; 282.15 K) was 304.7 ± 10 J/K/mol. The “molar heat capacity at constant pressure” value ([3]; 283.15 K) was 306 ± 10 J/K/mol, the “molar heat capacity at constant pressure” value ([3]; 284.15 K) was 305.9 ± 10 J/K/mol and the “molar heat capacity at constant pressure” value ([3]; 285.15 K) was 307 ± 10 J/K/mol. For the same molecule, the “molar heat capacity at constant pressure” value ([3]; 286.15 K) was 307.4 ± 10 J/K/mol, the “molar heat capacity at constant pressure” value ([3]; 287.15 K) was 308.9 ± 10 J/K/mol and the “molar heat capacity at constant pressure” value ([3]; 288.15 K) was 309.3 ± 10 J/K/mol. For the same molecule, the “molar heat capacity at constant pressure” value ([3]; 289.15 K) was 310.1 ± 10 J/K/mol, the “molar heat capacity at constant pressure” value ([3]; 290.15 K) was 310.6 ± 10 J/K/mol and the “molar heat capacity at constant pressure” value ([3]; 291.15 K) was 311.8 ± 10 J/K/mol. The “molar heat capacity at constant pressure” value ([3]; 292.15 K) was 312.5 ± 10 J/K/mol, the “molar heat capacity at constant pressure” value ([3]; 293.15 K) was 312.9 ± 10 J/K/mol and the “molar heat capacity at constant pressure” value ([3]; 294.15 K) was 313.5 ± 10 J/K/mol. For the same molecule, the “molar heat capacity at constant pressure” value ([3]; 295.15 K) was 314.7 ± 10 J/K/mol, the “molar heat capacity at constant pressure” value ([3]; 296.15 K) was 315.1 ± 10 J/K/mol and the “molar heat capacity at constant pressure” value ([3]; 297.15 K) was 316.1 ± 10 J/K/mol. The “molar heat capacity at constant pressure” value ([3]; 298.15 K) was 316.4 ± 10 J/K/mol, the “molar heat capacity at constant pressure” value ([3]; 299.15 K) was 316.9 ± 10 J/K/mol and the “molar heat capacity at constant pressure” value ([3]; 300.15 K) was 319.7 ± 11 J/K/mol. For the same molecule, the “molar heat capacity at constant pressure” value ([3]; 301.15 K) was 320.5 ± 11 J/K/mol, the “molar heat capacity at constant pressure” value ([3]; 302.15 K) was 321.2 ± 11 J/K/mol and the “molar heat capacity at constant pressure” value ([3]; 303.15 K) was 322.1 ± 11 J/K/mol. The “molar heat capacity at constant pressure” value ([3]; 304.15 K) was 323 ± 11 J/K/mol, the “molar heat capacity at constant pressure” value ([3]; 305.15 K) was 324.7 ± 11 J/K/mol and the “molar heat capacity at constant pressure” value ([3]; 306.15 K) was 325.1 ± 11 J/K/mol. The “molar heat capacity at constant pressure” value ([3]; 307.15 K) was 326.1 ± 11 J/K/mol, the “molar heat capacity at constant pressure” value ([3]; 308.15 K) was 327.2 ± 11 J/K/mol and the “molar heat capacity at constant pressure” value ([3]; 309.15 K) was 328.5 ± 11 J/K/mol. For the same molecule, the “molar heat capacity at constant pressure” value ([3]; 310.15 K) was 329.3 ± 11 J/K/mol and the “molar heat capacity at constant pressure” value ([3]; 311.15 K) was 330 ± 11 J/K/mol.
